Results: paper PMC2912373, “Low-Density Lipoprotein Receptor-Related Protein 1 (LRP1) Mediates Neuronal Aβ42 Uptake and Lysosomal Trafficking” (PLoS ONE, 2010)

System: MEF cells
Assay: FAM-Aβ42 internalization in wild-type (MEF1) and LRP1 knockout (MEF2) fibroblasts, FACS
Format: cell-based, mouse
Settings: 500 nM FAM-Aβ42, 37°C, 4 h, n = 3, p<0.01
Experimental: To rule out cell type-specific effects and artifacts due to the expression of LRP1 minireceptor, we performed similar FAM-Aβ42 uptake experiments in GT1-7 neuronal cells with reduced endogenous LRP1 levels by siRNA knockdown (Fig. 3A), and in mouse embryonic fibroblasts from both wild-type (MEF1) and LRP1 knockout mice (MEF2) (Fig. 3B). GT1-7 cells were plated and treated as indicated in the Experimental Procedures and GT1-7 and MEF cells were incubated with 500 nM of FAM-Aβ42 at 37°C for 4 h. Steady-state levels of intracellular Aβ42 were determined by flow cytometric analysis of pronase-treated cells. […]
Figure 3 LRP1 mediates internalization and accumulation of Aβ42 in GT1-7 and MEF cells. […] After 72 h, cells were treated with 500 nM FAM-Aβ42 for 4 h and intracellular Aβ42 was determined by flow cytometric analyses of pronase-treated cells as described in the Experimental Procedures. […] Wild type (MEF1) and LRP1 knockout (MEF2) fibroblasts were treated with 500 nM FAM-Aβ42 for 4 h, and intracellular Aβ42 was determined by flow cytometric analyses. ** p<0.01, t-test. n = 3. C, cell lysates from GT1-7 and MEF cells treated as in A and B, analyzed by 7.5% SDS-PAGE, and Western blotted with anti-LRP1 antibodies.
For quantification of Aβ uptake experiments, stable N2a cells were plated into 12-well plates at 16,250 cells/cm^2 and grown overnight. […]

FAM-Aβ42: FAM-Aβ42 peptide (23526) from Anaspec; amyloid-β 42 with carboxyfluorescein at the N-terminal region
internalization of FAM-Aβ42 in MEF2 (LRP1 knockout) compared to MEF1 (wild type): decrease
